35 molecules from patent US20040023972A1, “Use of substituted imidazo[1,2-a]-pyridin-, -pyrimidin-and-pyrazin-3-yl-amine derivatives in the preparation of medicaments for inhibiting NOS” (Gruenenthal GmbH, priority 2000, published 2004) can be followed below.

Molecules are shown by their SMILES.

The target in one experiment is T1, NO synthase (Rattus norvegicus, UniProt P29476).
T1 construct: the supernatant was then removed by decantation and frozen in portions at −80° C; from tissue; host or cells: rat cerebellum, 20,000 g supernatant of homogenate
Description: HTS-NOS assay (NOS assay): conversion of radioactive arginine, cation-exchanger filter plate. Format: biochemical. As to conditions: 10 μM. The gist of the method: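 Percent inhibition was derived by comparing remaining radioactive arginine with compound-free controls. Arginine retained on phosphate cation-exchanger filters was counted after citrulline washout, following a 5-60 min room-temperature (25 °C) reaction of labelled arginine, NADPH-containing medium and rat cerebellar homogenate supernatant.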
Regarding `[C-]#[N+]CCCCCCN(C(C)=O)c1c(-c2cccnc2)nc2cc(C)cc(C)n12` [Example 232, {6-[acetyl-(5,7-dimethyl-2-pyridin-3-yl-imidazo[1,2-a]pyridin-3-yl)-amino]-hexyl}-methylidyne-ammonium], the “HTS-NOS assay: % inhibition (10 μM)” value is on record as 59%.

Still in this experiment, the particulars now being: read-out: HTS-NOS assay: % inhibition (10 μM).
For `CC(=O)N(c1c(-c2ccc(C(=O)O)o2)nc2cc(C)ccn12)C(C)(C)C` [Example 201, 5-[3-(acetyl-tert-butyl-amino)-7-methyl-imidazo[1,2-a]pyridin-2-yl]-furan-2-carboxylic acid], the inhibition at 10 µM was found to be 54%.

With `CC(=O)N(c1c(-c2cc(C)c(C)o2)nc2ccccn12)C(C)(C)CC(C)(C)C` [Example 202, N-[2-(4,5-dimethyl-furan-2-yl)-imidazo[1,2-a]pyridin-3-yl]-N-(1,1,3,3-tetramethyl-butyl)-acetamide], the inhibition at 10 µM turned out to be 57%.

Regarding `CC(=O)N(c1c(-c2ccco2)nc2cc(C)cc(C)n12)C1CCCCC1` [Example 203, N-cyclohexyl-N-(2-furan-2-yl-5,7-dimethyl-imidazo[1,2-a]pyridin-3-yl)-acetamide], the inhibition at 10 µM was 60%.

For `CC(=O)N(c1c(-c2cccc3ccccc23)nc2cc(C)ccn12)C(C)(C)C` [Example 204, N-tert-butyl-N-(7-methyl-2-naphthalen-1-yl-imidazo[1,2-a]pyridin-3-yl)-acetamide], the inhibition at 10 µM was 54%.

For the molecule `CC(=O)N(c1c(-c2ccc(C(=O)O)s2)nc2cnccn12)C(C)(C)CC(C)(C)C` [Example 205, 5-{3-[acetyl-(1,1,3,3-tetramethyl-butyl)-amino]-imidazo[1,2-a]pyrazin-2-yl}-thiophene-2-carboxylic acid], the inhibition at 10 µM stood at 52%.

Turning to `CCCCN(C(C)=O)c1c(-c2ccccc2C)nc2ncccn12` [Example 206, N-butyl-N-(2-o-tolyl-imidazo[1,2-a]pyrimidin-3-yl)acetamide], the inhibition at 10 µM was 54%.

On to `COc1ccc(-c2nc3cc(C)ccn3c2N(C(C)=O)c2c(C)cccc2C)cc1OC` [Example 207, N-[2-(3,4-dimethoxy-phenyl)-7-methyl-imidazo[1,2-a]pyridin-3-yl]-N-(2,6-dimethyl-phenyl)-acetamide], for which the inhibition at 10 µM was 51%.

Regarding `CC(=O)N(c1c(-c2cc3ccccc3c3ccccc23)nc2cc(C)ccn12)C(C)(C)C` [Example 208, N-tert-butyl-N-(7-methyl-2-phenanthren-9-yl-imidazo[1,2-a]pyridin-3-yl)-acetamide], the inhibition at 10 µM was found to be 63%.

Regarding `CC(=O)N(c1c(C)cccc1C)c1c(-c2ccccc2F)nc2cc(C)ccn12` [Example 209, N-(2,6-dimethyl-phenyl)-N-[2-(2-fluoro-phenyl)-7-methyl-imidazo[1,2-a]pyridin-3-yl]-acetamide], the inhibition at 10 µM came to 62%.

On to `COc1ccccc1-c1nc2c(C)cccn2c1N(C(C)=O)C(C)(C)CC(C)(C)C` [Example 210, N-[2-(2-methoxy-phenyl)-8-methyl-imidazo[1,2-a]pyridin-3-yl]-N-(1,1,3,3-tetramethyl-butyl)-acetamide], for which the inhibition at 10 µM stood at 53%.

For `CC(=O)N(c1c(C)cccc1C)c1c(-c2cccc(O)c2)nc2cc(C)cc(C)n12` [Example 211, N-(2,6-dimethyl-phenyl)-N-[2-(3-hydroxy-phenyl)-5,7-dimethyl-imidazo[1,2-a]-pyridin-3-yl]-acetamide], the inhibition at 10 µM came out at 73%.

Turning to `CC(=O)N(c1c(C)cccc1C)c1c(C(C)(C)C)nc2cc(C)ccn12` [Example 212, N-(2-tert-butyl-7-methyl-imidazo[1,2-a]pyridin-3-yl)-N-(2,6-dimethyl-phenyl)-acetamide], the inhibition at 10 µM is 68%.

With `COc1cc(-c2nc3c(C)cc(Br)cn3c2N(C(C)=O)c2c(C)cccc2C)ccc1OC(C)=O` [Example 213, acetic acid 4-{3-[acetyl-(2,6-dimethyl-phenyl)-amino]-6-bromo-8-methyl-imidazo[1,2-a]pyridin-2-yl}-2-methoxy-phenyl ester], the inhibition at 10 µM amounted to 69%.

Consider `CC(=O)N(c1c(-c2ccc(C3OCCO3)o2)nc2cc(C)ccn12)C(C)(C)C` [Example 214, N-tert-butyl-N-[2-(5-[1,3]dioxolan-2-yl-furan-2-yl)-7-methyl-imidazo[1,2-a]-pyridin-3-yl]-acetamide], for which the inhibition at 10 µM came out at 56%.

With `CC(=O)N(c1c(-c2cc3ccccc3o2)nc2cc(C)ccn12)C(C)(C)CC(C)(C)C` [Example 216, N-(2-benzofuran-2-yl-7-methyl-imidazo[1,2-a]pyridin-3-yl)-N-(1,1,3,3-tetramethyl-butyl)-acetamide], the inhibition at 10 µM was 50%.

Consider `CC(=O)N(c1c(-c2cc3ccccc3o2)nc2cc(C)cc(C)n12)C(C)(C)CC(C)(C)C` [Example 217, N-(2-benzofuran-2-yl-5,7-dimethyl-imidazo[1,2-a]pyridin-3-yl)-N-(1,1,3,3-tetramethyl-butyl)-acetamide], for which the inhibition at 10 µM came to 63%.

On to `CC(=O)N(c1c(-c2ccc(C(=O)O)s2)nc2ccccn12)C(C)(C)C` [Example 218, 5-[3-(acetyl-tert-butyl-amino)-imidazo[1,2-a]pyridin-2-yl]-thiophene-2-carboxylic acid], for which the inhibition at 10 µM came to 60%.

For the molecule `CC(=O)N(c1c(C2CCCCC2)nc2cc(C)cc(C)n12)C(C)(C)CC(C)(C)C` [Example 219, N-(2-cyclohexyl-5,7-dimethyl-imidazo[1,2-a]pyridin-3-yl)-N-(1,1,3,3-tetramethyl-butyl)-acetamide], the inhibition at 10 µM is 62%.

Turning to `CC(=O)N(c1c(-c2ccc(C)o2)nc2ccccn12)C(C)(C)C` [Example 220, N-tert-butyl-N-[2-(5-methyl-furan-2-yl)-imidazo[1,2-a]pyridin-3-yl]-acetamide], the inhibition at 10 µM amounted to 61%.

Take `CSc1ccc(-c2nc3ncccn3c2N(C(C)=O)C(C)(C)C)s1` [Example 221, N-tert-butyl-N-[2-(5-methylsulfanyl-thiophen-2-yl)-imidazo[1,2-a]pyrimidin-3-yl]-acetamide]: the inhibition at 10 µM was found to be 54%.

For `CC(=O)N(c1c(-c2cc(C)c(C)o2)nc2cccc(C)n12)C(C)(C)CC(C)(C)C` [Example 222, N-[2-(4,5-dimethyl-furan-2-yl)-5-methyl-imidazo[1,2-a]pyridin-3-yl]-N-(1,1,3,3-tetramethyl-butyl)-acetamide], the inhibition at 10 µM came out at 53%.

Consider `CCCCN(C(C)=O)c1c(-c2ccc(Cl)cc2Cl)nc2ncccn12` [Example 223, N-butyl-N-[2-(2,4-dichloro-phenyl)-imidazo[1,2-a]pyrimidin-3-yl]-acetamide], for which the inhibition at 10 µM came out at 62%.

In the case of `CC(=O)N(c1c(-c2sccc2Br)nc2ccc(C)cn12)C1CCCCC1` [Example 224, N-[2-(3-bromo-thiophen-2-yl)-6-methyl-imidazo[1,2-a]pyridin-3-yl]-N-cyclohexyl-acetamide], the inhibition at 10 µM stood at 53%.

`CC(=O)N(c1c(C)cccc1C)c1c(-c2ccc(C(=O)O)s2)nc2ccc(C)cn12` [Example 225, 5-{3-[acetyl-(2,6-dimethyl-phenyl)-amino]-6-methyl-imidazo[1,2-a]pyridin-2-yl}-thiophene-2-carboxylic acid]: the inhibition at 10 µM was determined as 55%.

Regarding `CCCCN(C(C)=O)c1c(-c2cccc(OC)c2OC)nc2cc(C)ccn12` [Example 226, N-butyl-N-[2-(2,3-dimethoxy-phenyl)-7-methyl-imidazo[1,2-a]pyridin-3-yl]-acetamide], the inhibition at 10 µM amounted to 62%.

In the case of `CC(=O)N(c1c(-c2cccc(Cl)c2Cl)nc2ccccn12)C(C)(C)C` [Example 227, N-tert-butyl-N-[2-(2,3-dichloro-phenyl)-imidazo[1,2-a]pyridin-3-yl]-acetamide], the inhibition at 10 µM was 54%.

In the case of `CCCc1cccc2nc(-c3ccco3)c(N(C(C)=O)C(C)(C)CC(C)(C)C)n12` [Example 228, N-(2-furan-2-yl-5-propyl-imidazo[1,2-a]pyridin-3-yl)-N-(1,1,3,3-tetramethylbutyl)-acetamide], the inhibition at 10 µM worked out at 53%.

For `CC(=O)N(c1c(-c2ccc(C(=O)O)s2)nc2ccccn12)C1CCCCC1` [Example 229, 5-[3-(acetyl-cyclohexyl-amino)-imidazo[1,2-a]pyridin-2-yl]-thiophene-2-carboxylic acid], the inhibition at 10 µM amounted to 59%.

Turning to `CC(=O)N(c1c(-c2ccc(C(=O)O)o2)nc2c(C)cccn12)C(C)(C)CC(C)(C)C` [Example 230, 5-{3-[acetyl-(1,1,3,3-tetramethyl-butyl)-amino]-8-methyl-imidazo[1,2-a]pyridin-2-yl}-furan-2-carboxylic acid], the inhibition at 10 µM came out at 52%.

On to `CCCCN(C(C)=O)c1c(-c2ccccn2)nc2c(C(=O)O)cccn12` [Example 231, 3-(acetyl-butyl-amino)-2-pyridin-2-yl-imidazo[1,2-a]pyridine-8-carboxylic acid], for which the inhibition at 10 µM is 52%.

For the molecule `CSc1ccc(-c2nc3cnccn3c2N(C(C)=O)C(C)(C)C)s1` [Example 233, N-tert-butyl-N-[2-(5-methylsulfanyl-thiophen-2-yl)-imidazo[1,2-a]pyrazin-3-yl]-acetamide], the inhibition at 10 µM is 53%.

Turning to `CC(=O)N(c1c(-c2ccc(C(=O)O)s2)nc2cccc(C)n12)C1CCCCC1` [Example 234, 5-[3-(acetyl-cyclohexyl-amino)-5-methyl-imidazo[1,2-a]pyridin-2-yl]-thiophene-2-carboxylic acid], the inhibition at 10 µM was 58%.

For `CSc1ccc(-c2nc3cnccn3c2N(C(C)=O)C(C)(C)CC(C)(C)C)s1` [Example 235, N-[2-(5-methylsulfanyl-thiophen-2-yl)-imidazo[1,2-a]pyrazin-3-yl]-N-(1,1,3,3-tetramethyl-butyl)-acetamide], the inhibition at 10 µM is 58%.

As to `CC(=O)N(c1c(C)cccc1C)c1c(-c2cccc(Cl)c2Cl)nc2cccc(C)n12` [Example 236, N-[2-(2,3-dichloro-phenyl)-5-methyl-imidazo[1,2-a]pyridin-3-yl]-N-(2,6-dimethyl-phenyl)-acetamide], the inhibition at 10 µM was found to be 58%.
